# Test results as given in patent publication US20130281504A1, “Reduction of Microglia-Mediated Neurotoxicity by KCa3.1 Inhibition” (THE REGENTS OF THE UNIVERSITY OF CALIFORNIA, priority 2010, published 2013).
# Legend:
# [1] = target: T1, KCa3.1 (Mus musculus, UniProt O89109); assay: Whole-cell patch-clamp of mouse microglia KCa currents; type: cell-based; conditions: 1 μM TRAM-34; voltage-ramps −120 to +40 mV; FIG. 4A
# T1 construct: endogenous in cells; host or cells: primary mouse microglia harvested from the astrocyte feeder layer
# T1 sequence (O89109 whole entry): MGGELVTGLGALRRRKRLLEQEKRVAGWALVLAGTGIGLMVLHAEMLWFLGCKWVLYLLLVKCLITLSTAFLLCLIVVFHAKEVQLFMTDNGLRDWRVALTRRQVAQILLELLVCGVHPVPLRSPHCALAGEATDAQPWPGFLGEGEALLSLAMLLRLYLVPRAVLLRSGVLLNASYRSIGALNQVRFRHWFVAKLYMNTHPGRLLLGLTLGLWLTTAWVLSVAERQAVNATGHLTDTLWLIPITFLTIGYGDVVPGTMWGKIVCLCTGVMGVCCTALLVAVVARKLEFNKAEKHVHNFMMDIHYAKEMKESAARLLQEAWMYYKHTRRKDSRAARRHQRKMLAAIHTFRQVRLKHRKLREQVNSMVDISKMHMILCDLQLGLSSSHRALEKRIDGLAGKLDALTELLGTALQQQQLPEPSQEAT
# Procedure: Microglia, that were “floating off” from their feeding astrocyte layer, were harvested with a pipette, washed, attached to poly-L-lysine coated cover-slips, and then studied in the whole-cell mode of the patch-clamp technique with an EPC-10 HEKA amplifier. The pipette solution contained 145 mM K^+ aspartate, 2 mM MgCl2, 10 mM HEPES, 10 mM K2EGTA and 8.5 mM CaCl2 (1 μM free Ca^2+), pH 7.2, 290 mOsm. To reduce chloride “leak” currents, we used a Na^+ aspartate external solution containing 160 mM Na^+ aspartate, 4.5 mM KCl, 2 CaCl2, 1 mM MgCl2, 5 mM HEPES, pH 7.4, 300 mOsm. K^+ currents were elicited with voltage ramps from −120 to 40 mV of 200 ms duration applied every 10 s. […] Cell capacitance, a direct measurement of cell surface area, was continuously monitored during recordings. KCa3.1 current density was determined by dividing the TRAM-34-sensitive slope conductance by the cell capacitance.
# [2] = system: hippocampal slices; assay: AβO-treated organotypic hippocampal slice cultures; type: cell-based, mouse
# Procedure: Hippocampal slice cultures (400 μm-thick) were prepared from 7-day-old C57BL/6J mice as previously described (25) and cultured for 10 days in vitro before use. Neuronal damage in the slices was monitored by PI uptake following Bernardino et al (27). PI itself is not toxic to neurons (27). […] After 24 hrs, the slices were observed under a Nikon Eclipse E600 microscope and the red (630 nm) fluorescence emitted by PI taken up by damaged cells was photographed by a digital camera (SPOT RTke, SPOT Diagnostics, Sterling Heights, Mich.) with fixed exposure time.
# For immunofluorescent staining of neurons, cultures were fixed in 4% paraformaldehyde and stained with anti-PSD95 (1:200, Cell Signaling), anti-MAP2 (1:500, Chemicon) and anti-acetylated α-tubulin (1:250, Zymed). For immunofluorescent staining of microglia, cultures or hippocampal slices were fixed in 4% paraformaldehyde and stained with anti-IBA1 (1:500, Wako Chemicals USA), anti-SRA (E-20, 1:200, Santa Cruz Biotechnology), and anti-CD11b (1:200, AbD Serotec USA, Raleigh, N.C.). The fixed cells or hippocampal slices were incubated with antibodies for overnight at 4° C. followed by secondary Alexa488 conjugated anti-mouse or Alexa568 conjugated anti-rabbit antibody (1:700, Molecular probes). Immunostained images were observed under a Nikon Eclipse E600 microscope and photographed by a digital camera (SPOT RTke, SPOT Diagnostics, Sterling Heights, Mich.).
# To obtain lysates, cells or tissues were washed with ice-cold PBS and incubated with a buffer containing 50 mmol/L Tris-HCl (pH 7.4), 150 mmol/L NaCl, 2% SDS, proteinase inhibitor cocktail (Sigma), and phosphatase inhibitor cocktail (Sigma). Lysates were briefly sonncated and cleared by centrifugation at 50,000 rpm for 10 min. Equivalent amounts of protein were analyzed by Tris/HCL gel electrophoresis. Proteins were transferred to polyvinylidene difluoride membranes and probed with antibodies. Visualization was performed using enhanced chemiluminescence (ECL, Amersham Pharmacia, Piscataway, N.J.).
# Conditioned medium collected from microglia cultures (1×10^5/0.75 cm^2) and hippocampal slices treated with Aβ for 24 hrs were analyzed by the Nitric Oxide Quantization Kit according to the protocol of the manufacturer (Active Motif, Carlsbad, Calif.). Data were normalized to the amount of total protein.
# [3] = mice, previously determined; cited from earlier work
structure (smiles),measurement,setting,value
"Clc1ccccc1C(c1ccccc1)(c1ccccc1)n1cccn1 [TRAM-34, 1-[(2-chlorophenyl)diphenylmethyl]-1H-pyrazole]",sensitivity of voltage-independent current component,[1],sensitive
same,AβO-induced microglia activation in hippocampal slices,"[2]; 20 nM AβO 24 hrs, co-treatment, FIG. 7A, 7C",substantially ameliorated
same,AβO-induced NO production from hippocampal slices,"[2]; 20 μM doxycycline, 1 μM TRAM-34, FIG. 7B",prevented
same,AβO-enhanced PI uptake (neuronal damage) in hippocampal slices,"[2]; 20 μM doxycycline, 1 μM TRAM-34, FIG. 7C",ameliorated
same,AβO-induced reduction of dendritic and post-synaptic proteins in hippocampal slices,"[2]; co-treatment, FIG. 7D",substantially ameliorated
same,"NO production from hippocampal slices, compound alone",[2]; without AβO,did not affect NO production
same,half-life,[3],1 h
